In US20250306008A1, “PHARMACEUTICAL COMPOSITION FOR TREATING OR PREVENTING MALIGNANT BREAST CANCER” (KOREA ADVANCED INSTITUTE OF SCIENCE AND TECHNOLOGY, priority 2021, published 2025):

Legend:
BT20 cells = assay: Tamoxifen drug response (Incucyte confluency) after BCL11A and HDAC1/2 inhibition; type: cell-based; details: tamoxifen 10 uM
Protocol: (§1) Briefly, it is as follows: Cells were plated in 1×10^4 cells (3 repetitions for each condition; triplicate), after 24 hours, the cells were treated with the tamoxifen drug (10 uM) and monitored by taking pictures at 3-hour intervals using Incucyte for 72 hours. After that, the confluency of the cells in the pictures was calculated and the sensitivity of the cells to various drugs was graphed.

MDA-MB231 cells = assay: as above; type: cell-based; details: tamoxifen 10 uM
Protocol: as §1

T47D cell line = assay: Tamoxifen drug response after BCL11A and HDAC1/2 overexpression; type: cell-based, human
Excerpt: The present inventors confirmed the tamoxifen drug response in human breast cancer cell lines T47D and MCF7 upon overexpression (OE) of BCL11A and HDAC1/2.

breast cancer patients = assay: Patients' drug response to tamoxifen according to BCL11A and HDAC1/2 expression; set-up: species or system human; details: patient group with low expression of BCL11A and HDAC1/2 compared to the group with high expression

Molecule | sensitivity of control cells (shScrambled) to Tamoxifen (BT20 cells; BT20 control cells (shScrambled), 72 hours) | sensitivity of control cells (shScrambled) to Tamoxifen (MDA-MB231 cells; MDA-MB231 control cells (shScrambled), 72 hours) | sensitivity to tamoxifen of overexpressing cells (T47D cell line; T47D cells overexpressing BCL11A-OE, HDAC1/2-OE, or both) | response of control cells to tamoxifen (T47D cell line; T47D control cells) | sensitivity of patient group to the tamoxifen drug (breast cancer patients) | sensitivity of treated cells to Tamoxifen (cell confluency) (BT20 cells; BT20, monitored 72 hours) | sensitivity of treated cells to Tamoxifen (cell confluency) (MDA-MB231 cells; MDA-MB231, monitored 72 hours)
CC/C(=C(\c1ccccc1)c1ccc(OCCN(C)C)cc1)c1ccccc1 [Tamoxifen, tamoxifen] | did not show sensitivity | did not show sensitivity | did not show sensitivity | responded | higher sensitivity | – | –
shBCL11A: shRNA (GCATAGACGATGGCACTGTTA; SEQ ID NO: 1) designed to target the BCL11A gene, used as the BCL11A inhibitor | – | – | – | – | – | some sensitivity | some sensitivity
